Results on ten molecules are retold here after patent publication EP1614420A2, “Treatment of hypertension, angina and other disorders using (-) amlodipine” (Sepracor Inc., priority 1992, dated 1993).

One experiment concerns β-adrenergic. As to conditions: L-form versus D-enantiomer; cited from earlier work.
The test system of experiment [1] is potassium-depolarized rat aorta. As to conditions: in vitro; cited from earlier work.
In experiment [2] the test system is K+-depolarized isolated guinea pig ileal segment. Kind of experiment: Cardiovascular calcium antagonism, guinea pig ileum (in vitro). Format: cell-based. As to conditions: inhibition of contractile response to added calcium (20 µg/ml of CaCl), Ca-free physiological salt solution, 37° C, reference agents; for IC100: Cavia porcellus, read-out: ED100. The text has this: Cardiovascular Calcium Antagonism, Guinea Pig Ileum (in vitro):

Regarding `CC(C)NC[C@H](O)COc1cccc2ccccc12`, in the experiment on β-adrenergic, the “times more potent than the D-enantiomer” value was 100 times.

`CCOC(=O)C1=C(COCCN)NC(C)=C(C(=O)OC)C1c1ccccc1Cl` (single isomer, unassigned; isomer 3) [(-) isomer, 3-ethyl 5-methyl (-)-2-[(2-aminoethoxy)methyl]-4-(2-chlorophenyl)-1,4-dihydro-6-methyl-3,5-pyridine-dicarboxylate]: the “activity relative to the racemic mixture in antagonizing calcium-induced constriction” value in experiment [1] is reported as “twice as active as the racemic mixture”.

For the molecule `C(=C\c1ccccc1)/CN1CCN(C(c2ccccc2)c2ccccc2)CC1` [cinnazrizine], the ED100 in experiment [2] was found to be 1 µg/mL.

For the molecule `CN1CCC(=C2c3ccccc3C=Cc3ccccc32)CC1` [cyproheptadine], the IC100 in experiment [2] came out at 0.025 µg/mL.

Regarding `CN(C)CCOC(c1ccccc1)c1ccccc1` [diphenhydramine], the IC100 in experiment [2] turned out to be 1 µg/mL.

Regarding `Fc1ccc(C(c2ccc(F)cc2)N2CCN(C/C=C/c3ccccc3)CC2)cc1` [flunarizine], in experiment [2], the IC100 was 0.1 µg/mL.

Regarding `CC(C)[N+]1(C)[C@@H]2CC[C@H]1CC(OC(=O)C(CO)c1ccccc1)C2.[Br-]` (stereo partly shown) [ipratropium bromide], the ED100 in experiment [2] is greater than 2 µg/mL.

With `CC(COc1ccccc1)NC(C)C(O)c1ccc(O)cc1` (stereo not shown) [isoxuprine], the ED100 in experiment [2] came out at 4 µg/mL.

Take `COc1ccc(Cc2nccc3cc(OC)c(OC)cc23)cc1OC` [papaverine]: the IC100 in experiment [2] is 4 µg/mL.

With `CC(CN1c2ccccc2Sc2ccccc21)N(C)C` (stereo not shown) [promethazine], the IC100 in experiment [2] came to 0.25 µg/mL.
